The structures appear in SMILES notation. “And” between values parts separate entries of the source, which are not always exact repeats. Identical values can stand only once.

This experiment concerns amphetamine-induced hyperactivity in rats. The experiment can be described thus: amphetamine-induced hyperactivity model of mania in rats (automated activity monitors). In kind it is in vivo, Sprague Dawley rats. The note with it: for Effect on activity levels of rats (summary): amphetamine-treated rats; for Anti-manic potential from the tested model (conclusion): based on the tested model and doses; for Locomotor activity, 20 min, mean / Vertical activity, 20 min, mean / Locomotor activity, 30 min, mean / Vertical activity, 30 min, mean / Locomotor activity, 10 min, mean / Vertical activity, 10 min, mean / Locomotor activity, 20-10 min, mean / Vertical activity, 20-10 min, mean / Locomotor activity, 30-20 min, mean / Vertical activity, 30-20 min, mean: group mean n=10; for Locomotor activity, 20 min, mean / Vertical activity, 20 min, mean / Locomotor activity, 30 min, mean / Vertical activity, 30 min, mean / Locomotor activity, 10 min, mean / Vertical activity, 10 min, mean / Locomotor activity, 20-10 min, mean / Vertical activity, 20-10 min, mean / Locomotor activity, 30-20 min, mean / Vertical activity, 30-20 min, mean / Locomotor activity, 10 min / Locomotor activity, 20 min / Vertical activity, 20 min / Locomotor activity, 30 min / Vertical activity, 30 min / Vertical activity, 10 min / Locomotor activity, 20-10 min / Vertical activity, 20-10 min / Locomotor activity, 30-20 min / Vertical activity, 30-20 min: 75 mg/kg IP twice, amphetamine 0.5 mg/kg s.c.; for Locomotor activity, 20 min, mean / Vertical activity, 20 min, mean / Locomotor activity, 20 min / Vertical activity, 20 min: cumulative to 20 min; for Locomotor activity, 30 min, mean / Vertical activity, 30 min, mean / Locomotor activity, 30 min / Vertical activity, 30 min: cumulative to 30 min; for Locomotor activity, 10 min, mean / Vertical activity, 10 min, mean / Locomotor activity, 10 min / Vertical activity, 10 min: first 10 min; for Locomotor activity, 20-10 min, mean / Vertical activity, 20-10 min, mean / Locomotor activity, 20-10 min / Vertical activity, 20-10 min: second 10 min interval; for Locomotor activity, 30-20 min, mean / Vertical activity, 30-20 min, mean / Locomotor activity, 30-20 min / Vertical activity, 30-20 min: third 10 min interval; for Locomotor activity, 10 min / Locomotor activity, 20 min / Vertical activity, 20 min / Locomotor activity, 30 min / Vertical activity, 30 min / Vertical activity, 10 min / Locomotor activity, 20-10 min / Vertical activity, 20-10 min / Locomotor activity, 30-20 min / Vertical activity, 30-20 min: individual rat; for Locomotor activity, 20-10 min / Vertical activity, 20-10 min / Locomotor activity, 30-20 min / Vertical activity, 30-20 min: non cumulative. Here is the method: Evaluation of possible anti-bipolar effects of compounds 1 to 4 was effected by an amphetamine-induced hyperactivity model of mania in rats. Each of the compounds was examined in a separate experiment and compared with a control group, treated with the same dose of amphetamine.
Twenty Sprague Dawley rats, weighing 200-250 g served for each of the four (4) experiments. Rats were housed in a colony room with constant temperature (22° C.), 12 h light/dark cycle and free access to food and water. Each experiment consisted of two groups (n=10 per group), one group was treated with the compound (1 to 4) and the other with vehicle solution. In experiments 1-4, the drugs were administered intraperitoneally (IP). All experimental procedures were conducted during the light phase of the light/dark cycle.
Amphetamine (0.5 mg/kg, sub-cutaneous (s.c.), diluted in de-ionized water) was injected into all rats (both groups of each experiment) immediately prior to behavioral testing. In experiments 1 to 4, compounds (R)-N-acetyl aminoindan (1); (S)-N-indanyl glycinamide HCl (2); (rac)-N-(2-aminoacetyl)-1-aminoindan HCl (3); and (S)-N-formyl aminoindan (4) were injected twice intraperitoneally (IP) at a dose of 75 mg/kg, 19 h and 3 h prior to behavioral testing in experiments. All compounds were suspended in a 5% methyl cellulose solution. The vehicle solution was administered to the control animals.
Immediately after amphetamine injection, rats were placed in automated activity monitors and their activity levels were scored every 10 minutes in the 30 minute time span for experiments 1 to 4. Activity scores included separate measurements of horizontal (locomotion) and of vertical (rearing) activity.
Repeated ANOVA measurements were used to examine the effects of compounds 1 to 4 on locomotor and on vertical activity. One factor measured the treatment of the rats using compounds 1 to 4 or the control vehicle; the repeated measure factor was time (three 10 minute intervals). Post hoc LSD (least significant difference) tests were used to determine whether significant differences occurred in different time periods, where relevant.

Where [1] appears, read: 75 mg/kg IP, 19 h and 3 h before testing, result in words.

With `Cl.NCC(=O)N[C@H]1CCc2ccccc21` [Compound 2, (S)-N-indanyl glycinamide HCl], the “Locomotor activity, 20 min, mean” value was found to be 1277.9 counts; the “Vertical activity, 20 min, mean” value worked out at 96.3 counts; the “Locomotor activity, 30 min, mean” value is 1740.5 counts; the “Vertical activity, 30 min, mean” value is listed as 125 counts. The “Locomotor activity, 10 min, mean” value is reported as 626 counts; the “Vertical activity, 10 min, mean” value is listed as 49.3 counts; the “Locomotor activity, 20-10 min, mean” value is 651.9 counts; the “Vertical activity, 20-10 min, mean” value came to 47 counts. Moreover, the “Locomotor activity, 30-20 min, mean” value is 462.6 counts and the “Vertical activity, 30-20 min, mean” value was found to be 28.7 counts. Moreover, under setting [1], the “Effect on amphetamine-induced locomotor activity versus control (ANOVA)” value is on record as “did not have a significant effect” and the “Effect on amphetamine-induced vertical activity versus control (ANOVA)” value is given as “significantly increased the level of vertical activity”. Moreover, the “Effect on activity levels of rats (summary)” value (75 mg/kg IP, result in words) is on record as “surprisingly increased activity”. The “Anti-manic potential from the tested model (conclusion)” value (result in words) is “does not show anti-manic potential”. For the same molecule, the “Locomotor activity, 10 min” value (19 h and 3 h before testing, HCl) is 531 counts and 603 counts and 604 counts and 619 counts and 663 counts (2×) and 616 counts and 670 counts and 643 counts and 648 counts. Besides, under “HCl”, the “Locomotor activity, 20 min” value was 1096 counts and 1197 counts and 1334 counts and 1140 counts and 1525 counts and 1508 counts and 1366 counts and 1272 counts and 1325 counts and 1016 counts; the “Vertical activity, 20 min” value is 51 counts and 133 counts and 62 counts and 84 counts and 101 counts and 236 counts and 118 counts and 50 counts and 70 counts and 58 counts; the “Locomotor activity, 30 min” value is 1547 counts and 1606 counts and 1964 counts and 1598 counts and 1908 counts and 2038 counts and 1670 counts and 1608 counts and 2047 counts and 1419 counts; the “Vertical activity, 30 min” value is 75 counts and 168 counts and 98 counts and 96 counts and 104 counts and 321 counts and 126 counts and 58 counts and 116 counts and 88 counts. Where the note is “HCl”, the “Vertical activity, 10 min” value is 32 counts and 82 counts and 31 counts and 38 counts (3×) and 95 counts and 66 counts and 30 counts and 43 counts; the “Locomotor activity, 20-10 min” value is 565 counts and 594 counts and 730 counts and 521 counts and 862 counts and 892 counts and 696 counts and 629 counts and 677 counts and 353 counts; the “Vertical activity, 20-10 min” value was 19 counts and 51 counts and 31 counts and 46 counts and 63 counts and 141 counts and 52 counts and 12 counts and 40 counts and 15 counts; the “Locomotor activity, 30-20 min” value is 451 counts and 409 counts and 630 counts and 458 counts and 383 counts and 530 counts and 304 counts and 336 counts and 722 counts and 403 counts. Further, the “Vertical activity, 30-20 min” value (HCl) is 24 counts and 35 counts and 36 counts and 12 counts and 3 counts and 85 counts and 8 counts (2×) and 46 counts and 30 counts.
`O=CN[C@H]1CCc2ccccc21` [Compound 4, (S)-N-formyl aminoindan]: the “Locomotor activity, 20 min, mean” value came out at 1035 counts; the “Vertical activity, 20 min, mean” value was 24 counts; the “Locomotor activity, 30 min, mean” value was determined as 1523 counts; the “Vertical activity, 30 min, mean” value came out at 35 counts. The “Locomotor activity, 10 min, mean” value is 553 counts; the “Vertical activity, 10 min, mean” value was found to be 17 counts; the “Locomotor activity, 20-10 min, mean” value is recorded as 482 counts; the “Vertical activity, 20-10 min, mean” value is recorded as 7 counts. In addition, the “Locomotor activity, 30-20 min, mean” value is 488 counts; the “Vertical activity, 30-20 min, mean” value is on record as 11 counts; the “Locomotor activity, 20 min” value was 919 counts and 1099 counts and 896 counts and 840 counts and 1179 counts and 1113 counts and 923 counts and 988 counts and 1306 counts and 1088 counts; the “Vertical activity, 20 min” value was 10 counts and 40 counts and 21 counts and 7 counts and 30 counts and 17 counts and 27 counts and 4 counts and 37 counts and 43 counts. In addition, the “Locomotor activity, 30 min” value was 1371 counts and 1632 counts and 1253 counts and 1031 counts and 1789 counts and 1730 counts and 1422 counts (2×) and 2061 counts and 1519 counts; the “Vertical activity, 30 min” value is 15 counts and 55 counts and 26 counts and 7 counts and 30 counts and 31 counts and 38 counts and 14 counts and 83 counts and 46 counts; the “Vertical activity, 10 min” value was 9 counts and 30 counts (2×) and 13 counts and 7 counts and 12 counts (2×) and 21 counts and 3 counts and 34 counts; the “Locomotor activity, 20-10 min” value was 466 counts and 510 counts and 414 counts and 332 counts and 583 counts and 555 counts and 442 counts and 437 counts and 615 counts and 469 counts. For the same molecule, the “Vertical activity, 20-10 min” value was 1 counts (2×) and 10 counts and 8 counts and 0 counts and 18 counts and 5 counts and 6 counts and 3 counts and 13 counts; the “Locomotor activity, 30-20 min” value was 452 counts and 533 counts and 357 counts and 191 counts and 610 counts and 617 counts and 499 counts and 434 counts and 755 counts and 431 counts; the “Vertical activity, 30-20 min” value is 5 counts (2×) and 15 counts and 0 counts (2×) and 14 counts and 11 counts and 10 counts and 46 counts and 3 counts. Also, under setting [1], the “Effect on amphetamine-induced locomotor activity versus control (ANOVA)” value is “significantly reduced amphetamine-induced locomotor activity”. Moreover, the “Effect on activity levels of rats (summary)” value (75 mg/kg IP, result in words) is “reduced the activity levels”. The “Anti-manic potential from the tested model (conclusion)” value (result in words) is on record as “show anti-manic potential”. Further, the “Locomotor activity, 10 min” value (19 h and 3 h before testing) is 453 counts and 589 counts and 482 counts and 508 counts and 596 counts and 558 counts and 481 counts and 551 counts and 691 counts and 619 counts.

Source of the values: US6492426B1, “Use of 1-aminoindan derivatives for treatment of mania in bipolar mood disorder” (priority 1999, dated 2002).
